What was measured:
[1] = tested on: P3X63Ag8.653 (P3X) cells; test: Drug-induced DNA fragmentation in Bcl-XL-overexpressing myeloma cells; type: cell-based, murine; conditions: W-188 0.1 μg/mL; etoposide, chlorambucil, YW-200; 24 h; FIG. 5
Experimental: It has been reported that the murine myeloma, SP2/0, is highly sensitive to cycloheximide-induced apoptosis, whereas the related murine myeloma, P3X63Ag8.653 (P3X), was resistant (Gauthier, E. R., et al., Cancer Res., 1996, 56:1451). This resistance was attributed to natural high levels of expression of Bcl-XL in the absence of any detectable Bcl-2. In contrast, SP2 expressed neither Bcl-2 or Bcl-XL. Thus, normal (SP2) or Bcl-XL-overexpressing cells (P3X) were treated with chemotherapeutic drugs ±0.1 μg/ml W-188. After 24 h, % DNA fragmentation was measured by release of ^3H-labeled DNA fragments.
P3X was relatively resistant to DNA fragmentation induced by three chemotherapeutic drugs, etoposide, chlorambucil, and YW-200, relative to SP2 (FIG. 5). YW-200 is an experimental DNA-binding chemotherapeutic drug related to CC-1065 (Wang, Y., et al., U.S. Pat. No. 5,843,937, 1998).

[2] = Cytotoxicity to normal venous endothelial cells (MTT dye reduction assay); type: cell-based, human; conditions: human, normal venous endothelial cells, 6 h
[3] = tested on: Normal human venous endothelial cells; test: as above; type: cell-based
[4] = tested on: AP24; test: Etoposide-induced activation of AP24 (AAPVase) in HL-60 and PW leukemia lines; type: cell-based, human; conditions: for AP24 Activity (AAPVase, nmol/mg/hr): etoposide 50 μM + W-188 5 μg/ml, 3 h
[5] = tested on: Nuclei from HL-60 Bcl-2 cells; test: AP24-induced DNA fragmentation in nuclei isolated from pretreated cells; type: cell-based, human; conditions: for % DNA Fragmentation: cells incubated with W-188 5 μg/ml 4 hr, 20 hr assay
Text: Nuclei isolated from HL-60-Bcl-2 cells were resistant to AP24-induced DNA fragmentation, as expected (Wright, S. C., et al., Cancer Res., 1998, 58:5570).

[6] = tested on: Wehi-Hsp70 fibrosarcoma cells; test: 20 h DNA fragmentation assay in Wehi cells overexpressing Hsp70; type: cell-based, murine; conditions: etoposide + 20 μM W-188, FIG. 8
Experimental: This finding was confirmed using the Wehi murine fibrosarcoma cell line that is transfected with and overexpresses Hsp70, as described previously (Jaattela, M., et al., EMBO J. 1998, 17:6124). Wehi transfected with Hsp70 or vector control were cultured with etoposide ±20 μM W-188 in a 20 h DNA fragmentation assay.

[7] = tested on: bFGF-treated U937 cells; test: DNA fragmentation in bFGF-treated U937 cells; type: cell-based; conditions: 1 ng/ml bFGF 20 h pretreatment; FIG. 9
Experimental: Another means by which cells may evade apoptosis is by treatment with various growth factors. To assess the ability of W-188 to reverse the apoptosis resistance induced by growth factors, U937 cells were treated ±1 ng/ml basic fibroblast growth factor (bFGF) for 20 h, then exposed to etoposide or TNF and DNA fragmentation measured.

[8] = tested on: Bcl-2; test: Expression of Bcl-2 protein in HL-60-Bcl-2 cells; type: cell-based, human; conditions: W-188 + etoposide / chemotherapeutic drugs, in vitro
[9] = tested on: HL-60 cells; test: Subcellular distribution of W-188 in HL-60 cells (absorbance at 380 nm); type: in vitro ADME, human
Experimental: A method to measure the subcellular localization of this compound was developed by the inventors of the present invention. Because of its distinctive absorbance spectrum, W-188 can be detected in cell and tissue extracts by measuring absorbance at 380 nm, and quantitated relative to a standard curve constructed with known amounts of W-188. HL-60 and PW cells containing vector control or overexpressing Bcl-2 were incubated with W-188 followed by cell lysis and isolation of nuclei, mitochondria, and cytotol by differential centrifugation.
Furthermore, it can be seen that nuclei and mitochondria from cells overexpressing Bcl-2 accumulated higher levels of W-188 than the vector control cells. These findings are consistent with the hypothesis that W-188 may counteract the protective effects of Bcl-2 mediated at both the mitochondria as well as the nucleus.

[10] = tested on: RIF-1 fibrosarcoma; test: RIF-1 fibrosarcoma tumor growth in vivo; parameters: species or system mice; conditions: for Effect on tumor growth: five i.p. injections
Text: The present study tested in the ability of W-188 to synergize with Dox and inhibit tumor growth in vivo. The RIF-1 fibrosarcoma model was used because this model has been well-characterized, and naturally expresses high Bcl-2 levels and has a consistent growth pattern (Nahabedian, M. Y., et al., J. Natl. Can. Inst., 1988, 80:739; Chang, M-J., et al., Cancer Res., 1994, 54:5380; Srivastana, M., et al., J. Biol. Chem., 2001, 276:15481).
Groups of five mice each were inoculated s.c. with RIF-1 cells. The tumors were allowed to grow for 12 days to a size of 0.5 cm diameter, which was designated day 0. The mice were then given five i.p. injections every other day with vehicle, Dox 2.5 mg/kg, Dox 5.0 mg/kg, W-188 100 mg/kg, and Dox 5.0 mg/kg+W-188 100 mg/kg. The mice were weighed and the tumor size measured every day.
The protocol was similar to that described for the W-188 experiment in Example 8, except that in this study, mice with established tumors received only three injections of W-143 or Dox every other day starting on day 0.

[11] = tested on: HL-60-Bcl-2 xenograft; test: HL-60-Bcl-2 xenograft growth in nude mice; type: in vivo; conditions: single dose
Experimental: Groups of five nude mice were injected s.c. with 5×10^6 HL-60-Bcl-2 cells, and tumors allowed to grow to a size of 7-10 mm. Tumors were then exposed to a single dose of γ-radiation, a single dose of W-188 or vehicle control, or a single dose of both γ-radiation and W-188. Tumor growth was monitored every other day, and when the tumor volume increased four fold, the animals were sacrificed.

## CCC1=C(C)C(/C=C2\NC(=O)C(C)=C2CC)=NC/1=C\c1[nH]c(/C=C2\NC(=O)C(C)=C2CC)c(C)c1CC [W-188, etiobiliverdin-IV]
[1]
  Sensitization to drug-induced DNA fragmentation: sensitized P3X to undergo drug-induced DNA fragmentation at levels close to or equal to those of SP2
[2]; W-188 25 μg/mL, etoposide 0 μM
  cytotoxicity at 6 h, 25 μg/mL: 7 ± 1.5%
[2]; W-188 50 μg/mL, etoposide 0 μM
  cytotoxicity at 6 h, 50 μg/mL: 22 ± 2%
[2]; YW-200 0.01 μM + W-188 25 μg/mL
  cytotoxicity at 6 h, 25 μg/mL: 38 ± 4.9%
[2]; YW-200 0.01 μM + W-188 50 μg/mL
  cytotoxicity at 6 h, 50 μg/mL: 59 ± 2.2%
[2]; etoposide 100 μM + W-188 25 μg/mL
  cytotoxicity at 6 h, 25 μg/mL: 11 ± 1.5%
[2]; etoposide 100 μM + W-188 50 μg/mL
  cytotoxicity at 6 h, 50 μg/mL: 21 ± 1.6%
[3]
  Effect on toxic effects of etoposide on normal cells: did not increase the toxic effects of etoposide
[3]; W-188 at concentrations as high as 50 μg/mL
  Augmentation of killing of endothelial cells by etoposide or YW-200: did not augment the killing of endothelial cells by etoposide or YW-200
[4]; HL-60-Bcl-2 and PW-Bcl-2 exposed to apoptosis inducers
  Activation of AP24 (in words): did not activate AP24 unless they were also treated with W-188
[4]; HL-60 Bcl-2
  AP24 Activity (AAPVase, nmol/mg/hr): 124 nmol/mg/h
[4]; PW Bcl-2
  AP24 Activity (AAPVase, nmol/mg/hr): 129 nmol/mg/h
[5]; AP24 dilution 1:10
  % DNA Fragmentation: 44 ± 4.8%
[5]; AP24 dilution 1:20
  % DNA Fragmentation: 19 ± 1.0%
[5]; pretreatment of HL-60-Bcl-2 cells
  Sensitivity of isolated nuclei to AP24-induced DNA fragmentation (in words): restored the sensitivity of the isolated nuclei to AP24-induced DNA fragmentation
[6]
  Etoposide-induced DNA fragmentation: underwent DNA fragmentation at levels comparable to that observed with the Wehi-vector control
[7]
  Reversal of bFGF-induced resistance to etoposide or TNF-induced DNA fragmentation: completely reversed resistance to apoptosis
[8]
  Expression of Bcl-2 protein: did not downregulate the expression of Bcl-2 protein
[9]; HL-60 Bcl-2
  W-188 (μg/mg protein), Cytosol: 0.25 μg/mg protein
  W-188 (μg/mg protein), Mitochondria: 10.0 μg/mg protein
  W-188 (μg/mg protein), Nuclei: 186 μg/mg protein
[9]; HL-60 neo
  W-188 (μg/mg protein), Cytosol: 0 μg/mg protein
  W-188 (μg/mg protein), Mitochondria: 3.3 μg/mg protein
  W-188 (μg/mg protein), Nuclei: 100 μg/mg protein
[10]; W-188 100 mg/kg + Dox 5.0 mg/kg
  Effect on tumor growth: synergistically inhibited tumor growth
[10]; W-188 100 mg/kg + Dox 5.0 mg/kg, day 12, p=0.0005
  Tumor size relative to vehicle control: only half the size of the vehicle control
[10]; W-188 100 mg/kg alone, data not shown
  Effect on tumor growth: no effect on tumor growth
[11]; W-188 200 mg/kg alone
  Effect on tumor growth: no significant effect
[11]; W-188 400 mg/kg alone, p=0.005
  Effect on tumor growth: significantly inhibited tumor growth
[11]; γ-radiation + W-188 200 mg/kg, p=0.006
  Effect on tumor growth: even greater inhibition of tumor growth compared to radiation alone

Source: US20030207933A1, “Compositions and methods for increasing the sensitivity of apoptosis-resistant tumor cells to inducers of apoptosis” (priority 2002, published 2003)
